In one data set the target is T1, Rat A2A receptor (Rattus norvegicus, UniProt P30543).
T1 construct: from tissue; host or cells: rat corpus striatum membrane preparation
The data set is described as follows: Adenosine A2A receptor binding test (3H-CGS 21680 binding). The following applies: rat corpus striatum. The procedure: The final precipitate was suspended in 50 mmol/L Tris-HCl buffer (containing 10 mmol/L magnesium chloride and 0.02 unit/mg tissue of adenosine deaminase (manufactured by Sigma Co.)) by adding the buffer to the final precipitate so as to give a tissue concentration of 5 mg (wet weight)/mL.
Inhibition ratio (%)={1−(amount of the binding in the presence of the test compound−amount of the non-specific binding)/(amount of the total binding−amount of the non-specific binding)}×100

Data set [1] relates to CGS 21680-induced catalepsy. The data set is described as follows: Activity on CGS 21680-induced catalepsy. Type of data set: in vivo, mouse. The following applies: 10 mg/kg oral; for inhibition in vivo at 10 mg/kg: Mus musculus, 1 h, percentage reduction of total score vs control group, read-out: Remission ratio (%); for Total score: total catalepsy score of 10 mice (maximum 50 points), 1 hour after administration. How it is done:
This test was carried out using 10 animals per group of male ddY mice of 5 week age (22 to 25 g in body weight, Japan SLC). […] One hour after the administration of the test compound, only forelimbs or only hindlimbs of each animal were laid on a vertically arranged stand made of acryl, having a size of 4.5 cm in height and 1.0 cm in width, to measure catalepsy symptoms. All of the test compounds were administered orally in a dose of 10 mg/kg.
The effect was judged by total catalepsy scores of 10 animals in one group (the maximum score is 50 points). When total score was 40 points or less, the activity of the compounds was judged positive. The number of animals showing remission of catalepsy was expressed by the number of cases in which the catalepsy score was 4 points or less in 10 cases. The catalepsy remission ratio was expressed as the percentage reduction of the total score in the test compound-administered group to the total score in the control group.

Data set [2] has as its system MPTP-treated common marmoset. In words: Parkinson's disease model (common marmoset treated with MPTP). The data set is classed as in vivo. The following applies: motor disability score (0-17 points), 4 animals.
Procedure: This test was carried out using 4 animals per group of female and male common marmosets of 2 to 3 year age (300 to 375 g in body weight, CLEA Japan). MPTP (manufactured by RBI) was dissolved in physiological saline for injection (manufactured by Otsuka Pharmaceutical Co., Ltd.) and administered to common marmoset once a day for 5 days by subcutaneous injection in a dose of 2.0 mg/kg. Six weeks or more after the administration, animals showing chronic symptoms of Parkinson's disease were used in the test. Each test compound was used by suspending it in 0.3% Tween 80 and 10% sucrose solution. One hour before the administration of the test compound, the animals to be tested were put into an observation cage (equipped with a spontaneous locomotor count measuring apparatus) to adapt them to the environment. Pre-motor disability before administration of the test compound was scored, and was compared with the motor disability score after administration of the test compound. Symptoms of Parkinson's disease were observed from a one way see through window at 30 minutes' interval for 8 hours to score their motor disability. The spontaneous locomotor count was measured at 30 minutes' interval for 12 hours by a computer-controlled automatic measuring apparatus. […]
Data set [3] has as its system reserpine-induced catalepsy. In words: Activity on reserpine-induced catalepsy. Type of data set: in vivo, mouse. The following applies: oral; for Remission ratio (%): percentage reduction of total score vs control group; for Total score: total catalepsy score of 10 mice (maximum 50 points), reserpine 5 mg/kg s.c., 1 hour after administration. The procedure: This test was carried out using 10 animals per group of male ddY mice of 5 week age (22 to 24 g in body weight, Japan SLC). […] Reserpine (5 mg/kg: apoplon, Daiichi Pharmaceutical Co., Ltd.; diluted with distilled water) was subcutaneously administered, and catalepsy-inducing activity was observed from 18 hours after the administration. […] Each test compound was suspended in distilled water for injection containing 0.5% MC (manufactured by Otsuka Pharmaceutical Co., Ltd.) The suspension containing each of the test compounds or a solution containing no test compound (distilled water for injection containing 0.5% MC (manufactured by Otsuka Pharmaceutical Co., Ltd.); control) was orally administered (0.1 mL per 10 g mouse body weight) and, one hour after the administration of test compound, only forelimbs or only hindlimbs of each animal were laid on a stand having a size of 4.5 cm in height and 1.0 cm in width, to measure catalepsy symptoms.
The effect was judged by total catalepsy scores of 10 animals in one group (the maximum is 50 points). When the total score was 40 points or less, the activity of the test compound was judged positive. The number of animals showing remission of catalepsy was expressed by the number of cases in which the catalepsy score was 4 points or less in 10 cases. The catalepsy remission ratio was expressed as the percentage reduction of the total score in the test compound-administered group to the total score in the control group.

Data set [4] relates to haloperidol-induced catalepsy. In words: Activity on haloperidol-induced catalepsy. Type of data set: in vivo, mouse. The following applies: 10 mg/kg oral; for Number of animals showing remission: catalepsy score 4 points or less, out of 10 mice; for Remission ratio (%): percentage reduction of total score vs control group; for Total score: total catalepsy score of 10 mice (maximum 50 points), haloperidol 1.0 mg/kg i.p. How it is done:
Parkinson's disease is a disease based on the degeneration and cell death of the nigrostriatal dopaminergic neuron. When haloperidol (dopamine D2 antagonist) is administered, catalepsy is induced by the block of postsynaptic D2 receptor. This haloperidol-induced catalepsy is known as a classic model in which symptoms of Parkinson's disease are produced by drug administration (European Journal of Pharmacology, 182: 327 (1990) and U.S. Pat. No. 3,991,207).
This test was carried out using 10 animals per group of male ddY mice of 5 week age (22 to 24 g in body weight, Japan SLC). Haloperidol (manufactured by Janssen) was suspended in 0.5% MC and administered intraperitoneally into mice at a dose of 1.0 mg/kg. Each test compound was suspended in distilled water for injection containing 0.5% MC (manufactured by Otsuka Pharmaceutical Co., Ltd.) (10 mg/kg). Also, as a control drug, 100 mg/kg of L-DOPA and 25 mg/kg of benserazide were used as a solution by dissolving them into distilled water for injection containing 0.5% MC (manufactured by Otsuka Pharmaceutical Co., Ltd.) One hour after the intraperitoneal injection of haloperidol, the suspension containing each of the test compounds or the solution containing the control drug was orally administered (0.1 mL per 10 g mouse body weight) and, one hour after the administration of the test compound or the control drug, only forelimbs or only hindlimbs of each animal were laid on a stand having a size of 4.5 cm in height and 1.0 cm in width, to measure catalepsy symptoms. The catalepsy score was evaluated by the judging criteria shown in the above-described Table 3.
The effect was judged by total catalepsy scores of 10 animals in one group (the maximum score is 50 points). When the total score was 40 points or less, the activity of the test compounds was judged positive. The number of animals showing remission of catalepsy was expressed by the number of cases in which the catalepsy score was 4 points or less in 10 cases. The catalepsy remission ratio was expressed as the percentage reduction of the total score in the test compound-administered group to the total score in the control group.

For a further data set, the system named is ddY male mice. In words: Forced swimming method (measurement of immobility time). Conditions: oral, one hour before the test; 4 minutes (240 seconds) measurement; 10 mice. The data set is classed as in vivo, mouse. The procedure:
Ten animals per group of ddY male mice (21 to 26 g in body weight, Japan SLC) were used as the test animal. During the preliminary feeding period, they were allowed to have feed and water freely in an animal room of a room temperature of 23±1° C. and a humidity of 55±5%. Animals showing abnormal reactions in terms of spontaneous activity, myotonia, eyesight or the like were excluded beforehand. The test compound was suspended in a 0.3% Tween 80 solution and orally administered one hour before the test. In the negative control group, 10 mL/kg of a 0.3% Tween 80 solution alone was orally administered. Measurement of immobility time was carried out in accordance with the method of Porsolt (Arch. int Pharmacodyn., 229: 327-336 (1977)). That is, a cylindrical transparent acrylic water tank (10 cm in diameter and 25 cm in height) was filled with 9 cm in depth of water having a temperature of 23±1° C., and mice were forced to swim for 6 minutes. When mice are put into water, they immediately start to swim trying to escape from the tank, but the motion gradually decreases 1 to 2 minutes thereafter. […] In order to reduce effects of daily rhythm, the test was carried out by using 5 of the 10 animals per group in the morning, and the remaining 5 animals in the afternoon. […]

Each structure is given as a SMILES string.

This is an account of results in patent US6545000B1, “[1,2,4]triazolo[1,5-c]pyrimidine derivatives” (Kyowa Hakko Kogyo Co., Ltd., priority 1998, dated 2003).

T1 sequence (P30543 whole entry): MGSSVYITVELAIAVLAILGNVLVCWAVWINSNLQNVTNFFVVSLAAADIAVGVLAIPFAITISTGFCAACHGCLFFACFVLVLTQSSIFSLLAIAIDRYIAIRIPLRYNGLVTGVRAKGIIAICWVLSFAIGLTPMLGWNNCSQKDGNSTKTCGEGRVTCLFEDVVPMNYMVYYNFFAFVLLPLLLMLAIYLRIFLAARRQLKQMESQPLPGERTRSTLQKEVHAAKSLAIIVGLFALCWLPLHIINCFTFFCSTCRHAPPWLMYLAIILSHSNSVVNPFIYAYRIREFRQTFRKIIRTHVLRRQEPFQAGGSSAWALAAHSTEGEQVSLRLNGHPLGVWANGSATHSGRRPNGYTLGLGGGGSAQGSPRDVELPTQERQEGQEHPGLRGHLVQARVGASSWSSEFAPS

With `CC(C)(O)CN1CCN(c2cc3nc(-c4ccco4)nn3c(N)n2)CC1` [Compound 1, 5-Amino-2-(2-furyl)-7-(4-(2-hydroxy-2-methylpropyl)piperazinyl)[1,2,4]triazolo[1,5-c]pyrimidine], the “Rat A2A receptor inhibition ratio (%)” value on Rat A2A receptor (10^−6 mol/L test compound) is recorded as 81%. Also, the “Rat A2A receptor inhibition ratio (%)” value at Rat A2A receptor (10^−7 mol/L test compound) was determined as 42%. Further, in data set [1], the inhibition in vivo at 10 mg/kg is 100% and the Total score was determined as 0. Also, the “Average score at maximum improvement after administration” value in data set [2] (after administration) was 4.75 ± 0.48 (p < 0.0256). Further, the “Average score before administration” value in data set [2] (before administration of the test compound) came to 12.75 ± 0.25. In data set [3], the “Remission ratio (%)” value was found to be 72% and the Total score is given as 14. Moreover, in data set [4], the “Number of animals showing remission” value came to 10, the “Remission ratio (%)” value turned out to be 100% and the Total score was 0.
`Cc1cc(CN2CCN(c3cc4nc(-c5ccco5)nn4c(N)n3)CC2)no1` [Compound 21, 5-Amino-2-(2-furyl)-7-(4-(5-methylisoxazol-3-ylmethyl)piperazinyl)[1,2,4]triazolo[1,5-c]pyrimidine]: the “Rat A2A receptor inhibition ratio (%)” value on Rat A2A receptor (10^−6 mol/L test compound) turned out to be 90%. At Rat A2A receptor (10^−7 mol/L test compound), the “Rat A2A receptor inhibition ratio (%)” value was determined as 65%. Besides, in data set [1], the inhibition in vivo at 10 mg/kg amounted to 100% and the Total score worked out at 0. In data set [3], the “Remission ratio (%)” value turned out to be 66% and the Total score is 17. Also, the “Immobility time (second)” value in the data set with ddY male mice was 7.6 ± 3.2 (p < 0.01) second. Besides, in data set [4], the “Number of animals showing remission” value was found to be 10, the “Remission ratio (%)” value turned out to be 100% and the Total score turned out to be 0.
Broadly, the melting point is the temperature, or range, at which the solid turns liquid. `Cc1onc(-c2ccccc2)c1CN1CCN(c2cc3nc(-c4ccco4)nn3c(N)n2)CC1` [Compound 25, 5-Amino-2-(2-furyl)-7-(4-(5-methyl-3-phenylisoxazol-4-ylmethyl)piperazinyl)[1,2,4]triazolo[1,5-c]pyrimidine] returned a melting point of 244 to 246 °C. The “Rat A2A receptor inhibition ratio (%)” value at Rat A2A receptor (10^−6 mol/L test compound) came out at 95%.
`Nc1nc(N2CCN(Cc3ccc4c(c3)OCC(=O)N4)CC2)cc2nc(-c3ccco3)nn12` [Compound 26, 5-Amino-2-(2-furyl)-7-(4-(3-oxo-3,4-dihydro-2H-benzo[1,4]oxazin-7-ylmethyl)piperazinyl)[1,2,4]triazolo[1,5-c]pyrimidine] gave a melting point of 287 to 288 °C. For the same compound, the “Rat A2A receptor inhibition ratio (%)” value on Rat A2A receptor (10^−6 mol/L test compound) was determined as 94%.
